# Key:
# hBPGM = hBPGM (Homo sapiens (Human), UniProt P07738); experiment: BPGM Synthase Assay; format: biochemical; conditions: Table 6 additional results; read-out: huBPGM: synthase Enzyme IC50
# Procedure, shortened: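 BPGM (5 nM) with GAPDH (0.4 U/mL) was incubated with compound for 30 min at RT in pH 7.4 Tris buffer with 3.23 mM KH2PO4 and 1 mM DTT. Reaction ran 60 min with NAD, 3PG and GAP (substrate solution 2 mM, 20 μM and 800 μM). After koningic acid stop, NADH fluorescence was read, then resorufin from diaphorase/resazurin coupling.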
# [1] = molecular target: human Bisphosphoglycerate mutase (hBPGM) (Homo sapiens (Human), UniProt P07738); experiment: BPGM Phosphatase Assay; format: biochemical; conditions: Table 6 additional results; read-out: huBPGM: phosphatase Enzyme EC50
# Method: Solutions of the test compounds were then added to the plate and the DMSO content was normalized across the plate. The plate was incubated at RT for 15 min. Next, the substrate 2,3-BPG (5 μL) was added to all the wells, and the plate was sealed and incubated for 24 hr at RT. After incubation, BIOMOL green dye (40 μL) was added to all the wells, the plate was shaken to mix, and the plate was incubated at RT for 20-30 min.
# Chain of human Bisphosphoglycerate mutase (hBPGM) (P07738 whole entry): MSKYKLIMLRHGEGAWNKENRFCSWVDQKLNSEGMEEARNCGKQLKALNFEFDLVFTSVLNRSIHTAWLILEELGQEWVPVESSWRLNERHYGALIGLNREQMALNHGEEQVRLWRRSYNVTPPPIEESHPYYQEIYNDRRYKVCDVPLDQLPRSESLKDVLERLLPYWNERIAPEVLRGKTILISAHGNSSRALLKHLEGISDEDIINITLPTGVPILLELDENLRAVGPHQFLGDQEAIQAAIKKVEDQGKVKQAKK
# Chain of hBPGM (P07738 whole entry, looked up): as the sequence (P07738 whole entry) above
Compound,IC50 (hBPGM) [nM],EC50 [1] [nM]
Cc1nc(CNC(=O)C(N)=O)sc1-c1csc(-c2cc(O)c(C(=O)O)cc2F)n1 [Example 202],120,150
Cc1nc(CNC(=O)C(=O)N(C)C)sc1-c1csc(-c2cc(O)c(C(=O)O)cc2F)n1 [Example 203],210,980
Cc1nc(COc2cccc(N)n2)sc1-c1csc(-c2cc(O)c(C(=O)O)cc2F)n1 [Example 204],270,250
COC(=O)NCc1nc(C)c(-c2csc(-c3cc(O)c(C(=O)O)cn3)n2)s1 [Example 207],280,340
COC(=O)NCc1nc(C)c(-c2csc(-c3cc(C)c(C(=O)O)c(O)c3)n2)s1 [Example 208],360,420
COC(=O)NCc1nc(C)c(-c2csc(-c3cc(O)c(C(=O)O)cc3F)n2)s1 [Example 209],250,470
Cc1nc(N)sc1-c1csc(-c2cc(O)c(C(=O)O)cc2F)n1 [Example 210],930,830
COC(=O)NCc1nc(C)c(-c2csc(-c3cc(O)c(C(=O)O)cc3Cl)n2)s1 [Example 211],100,190
Cc1nc(CNC(=O)c2ccccc2)sc1-c1csc(-c2cc(O)c(C(=O)O)cc2F)n1 [Example 212],160,100
COC(=O)NCc1nc(C)c(-c2csc(-c3ccc(C(=O)O)c(O)c3)n2)s1 [Example 213],130,140
Cc1nc(CNC(=O)OC2CC2)sc1-c1csc(-c2cc(O)c(C(=O)O)cc2F)n1 [Example 215],95,55
Cc1nc(Cc2ccn(C)n2)sc1-c1csc(-c2ccc(C(=O)O)c(O)c2)c1 [Example 216],190,200
Cc1nc(Cc2cccnc2)sc1-c1cccc(-c2cc(O)c(C(=O)O)cc2F)n1 [Example 217],110,120
Cc1nc(COc2ccnn2C)sc1-c1csc(-c2cc(O)c(C(=O)O)cc2F)n1 [Example 218],130,170
Cc1nc(COc2ccn(C)n2)sc1-c1csc(-c2cc(O)c(C(=O)O)cc2F)n1 [Example 219],120,65
Cc1nc(CNC(=O)C2CCC2)sc1-c1csc(-c2cc(O)c(C(=O)O)cc2F)n1 [Example 220],52,63
Cc1nc(CNc2ccn(C)n2)sc1-c1csc(-c2cc(O)c(C(=O)O)cc2F)n1 [Example 221],90,35
Cc1nc(CNC(=O)C2CCCC2)sc1-c1csc(-c2cc(O)c(C(=O)O)cc2F)n1 [Example 222],110,130
Cc1nc(Cn2cccn2)sc1-c1cccc(-c2cc(O)c(C(=O)O)cc2F)n1 [Example 223],150,190
Cc1nc(CNS(C)(=O)=O)sc1-c1csc(-c2cc(O)c(C(=O)O)cc2F)n1 [Example 224],260,300
COC(=O)NCc1nc(C)c(-c2csc(-c3c(F)cc(C(=O)O)cc3F)n2)s1 [Example 225],830,7300
Cc1nc(CNC(=O)N(C)C)sc1-c1csc(-c2cc(O)c(C(=O)O)cc2F)n1 [Example 226],56,110
CCOC(=O)NCc1nc(C)c(-c2csc(-c3cc(O)c(C(=O)O)cc3F)n2)s1 [Example 227],76,90
Cc1nc(Cc2cccnc2)sc1-c1csc(-c2cc(O)c(C(=O)O)cc2F)n1 [Example 228],87,55
Cc1nc(Cn2cccn2)sc1-c1csc(-c2cc(O)c(C(=O)O)cc2F)c1 [Example 229],190,30
Cc1nc(CN)sc1-c1csc(-c2ccc(C(=O)O)c(O)c2)n1 [Example 230],4400,> 25000
Cc1nc(CNC(=O)C(C)C)sc1-c1csc(-c2cc(O)c(C(=O)O)cc2F)n1 [Example 231],52,170
